{
  "source": "patent US9932314B2",
  "about": "“Pyrazole compounds and their use as T-type calcium channel blockers” (IDORSIA PHARMACEUTICALS LTD, priority 2015, dated 2018)",
  "data": [
    {"biological_target": "T1, voltage-dependent T-type calcium channel subunit alpha-1G (Cav3.2) (Homo sapiens, UniProt O95180)", "T1 construct": "expressed in transfected cells; host or cells: HEK293", "T1 sequence (O95180 whole entry)": "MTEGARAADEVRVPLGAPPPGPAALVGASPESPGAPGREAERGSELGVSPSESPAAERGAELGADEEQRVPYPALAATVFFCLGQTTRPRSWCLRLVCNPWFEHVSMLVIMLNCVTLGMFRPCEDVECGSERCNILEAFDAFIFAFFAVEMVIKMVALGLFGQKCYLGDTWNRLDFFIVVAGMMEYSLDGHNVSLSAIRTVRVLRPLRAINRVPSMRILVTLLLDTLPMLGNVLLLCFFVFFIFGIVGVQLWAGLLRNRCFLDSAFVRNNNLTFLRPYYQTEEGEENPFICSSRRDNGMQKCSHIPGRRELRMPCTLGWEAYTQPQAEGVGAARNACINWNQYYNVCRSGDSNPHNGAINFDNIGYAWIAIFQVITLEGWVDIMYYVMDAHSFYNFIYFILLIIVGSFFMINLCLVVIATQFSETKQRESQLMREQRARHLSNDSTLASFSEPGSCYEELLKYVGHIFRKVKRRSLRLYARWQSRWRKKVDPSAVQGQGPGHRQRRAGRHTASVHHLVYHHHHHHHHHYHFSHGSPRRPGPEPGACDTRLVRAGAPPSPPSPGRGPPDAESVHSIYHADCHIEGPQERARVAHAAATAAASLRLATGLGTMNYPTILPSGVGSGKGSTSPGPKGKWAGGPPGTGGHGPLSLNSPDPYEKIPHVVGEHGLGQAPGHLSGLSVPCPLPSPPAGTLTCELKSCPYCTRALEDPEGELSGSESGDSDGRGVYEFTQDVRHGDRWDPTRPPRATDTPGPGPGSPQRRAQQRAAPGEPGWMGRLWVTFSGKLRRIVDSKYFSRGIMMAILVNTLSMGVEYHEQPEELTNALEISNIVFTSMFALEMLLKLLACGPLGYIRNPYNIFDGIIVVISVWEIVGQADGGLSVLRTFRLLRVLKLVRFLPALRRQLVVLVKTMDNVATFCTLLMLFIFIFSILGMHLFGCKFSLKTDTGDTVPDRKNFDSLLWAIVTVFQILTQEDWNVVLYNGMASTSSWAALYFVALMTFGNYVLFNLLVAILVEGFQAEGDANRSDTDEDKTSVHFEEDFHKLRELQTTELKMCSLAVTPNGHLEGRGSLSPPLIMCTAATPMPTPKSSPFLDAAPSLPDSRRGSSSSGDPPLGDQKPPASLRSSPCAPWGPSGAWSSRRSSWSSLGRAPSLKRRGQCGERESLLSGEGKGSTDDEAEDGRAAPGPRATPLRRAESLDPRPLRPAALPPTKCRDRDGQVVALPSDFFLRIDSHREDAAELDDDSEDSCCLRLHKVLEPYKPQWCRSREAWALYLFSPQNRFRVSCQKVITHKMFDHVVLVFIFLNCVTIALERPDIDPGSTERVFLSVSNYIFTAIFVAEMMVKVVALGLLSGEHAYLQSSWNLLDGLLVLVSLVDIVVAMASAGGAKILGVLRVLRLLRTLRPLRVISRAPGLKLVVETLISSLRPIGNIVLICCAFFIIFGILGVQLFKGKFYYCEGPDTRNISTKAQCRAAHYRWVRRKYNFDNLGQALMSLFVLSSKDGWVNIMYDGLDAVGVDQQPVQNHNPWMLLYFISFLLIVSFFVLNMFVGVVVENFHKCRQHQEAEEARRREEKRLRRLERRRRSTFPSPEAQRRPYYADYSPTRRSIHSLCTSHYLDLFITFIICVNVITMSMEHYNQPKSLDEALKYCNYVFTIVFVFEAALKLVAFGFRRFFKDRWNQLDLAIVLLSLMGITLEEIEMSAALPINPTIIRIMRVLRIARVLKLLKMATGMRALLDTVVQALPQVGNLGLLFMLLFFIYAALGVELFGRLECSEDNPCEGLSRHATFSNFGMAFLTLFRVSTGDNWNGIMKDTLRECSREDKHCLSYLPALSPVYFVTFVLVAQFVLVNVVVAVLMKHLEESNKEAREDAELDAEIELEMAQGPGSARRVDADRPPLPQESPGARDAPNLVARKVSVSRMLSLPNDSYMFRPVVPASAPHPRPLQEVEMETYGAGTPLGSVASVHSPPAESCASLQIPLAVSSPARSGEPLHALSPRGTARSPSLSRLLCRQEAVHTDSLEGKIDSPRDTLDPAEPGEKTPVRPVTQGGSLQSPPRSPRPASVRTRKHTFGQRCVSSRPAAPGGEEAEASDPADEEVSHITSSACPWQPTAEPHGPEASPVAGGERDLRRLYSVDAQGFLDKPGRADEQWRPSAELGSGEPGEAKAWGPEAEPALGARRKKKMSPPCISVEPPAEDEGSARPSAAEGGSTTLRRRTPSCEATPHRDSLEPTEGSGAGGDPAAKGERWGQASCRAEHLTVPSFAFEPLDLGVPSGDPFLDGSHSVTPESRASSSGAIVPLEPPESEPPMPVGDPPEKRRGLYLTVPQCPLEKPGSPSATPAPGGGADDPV", "experiment": "FLIPR calcium flux assay, HEK293 cells recombinantly expressing Cav3.2", "format": "cell-based", "conditions": "Cav3.2-channel, Fluo-4-AM, 3 min incubation, stimulation with 10 mM CaCl2", "how_it_was_run": "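Calcium influx was triggered by adding CaCl2 to 10 mM final, 3 min after compounds in tetraethylammonium-based buffer, pH 7.2, reached Fluo-4-AM-loaded recombinant HEK293 cells. The integrated kinetic fluorescence signal per concentration gave concentration-response curves by non-linear sigmoidal regression.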", "units": {"IC50": "nM"}, "values": [
      {"molecule": "COc1ccc(Cn2ccc(NC(=O)Cc3ccc(N(C)C4CC4)nc3)n2)cc1", "note": "[Example 168, 2-[6-(Cyclopropyl(methyl)amino)-pyridin-3-yl]-N-[1-(4-methoxy-benzyl)-1H-pyrazol-3-yl]-acetamide]", "IC50": 113},
      {"molecule": "O=C(Cc1ccc(-c2ccncn2)cc1)Nc1ccn(Cc2ccc(F)cc2)n1", "note": "[Example 87, N-[1-(4-Fluoro-benzyl)-1H-pyrazol-3-yl]-2-(4-pyrimidin-4-yl-phenyl)-acetamide]", "IC50": 157},
      {"molecule": "CN(c1ccc(CC(=O)Nc2ccn(Cc3ccc(C#N)cc3)n2)cn1)C1CC1", "note": "[Example 166, N-[1-(4-Cyano-benzyl)-1H-pyrazol-3-yl]-2-[6-(cyclopropyl(methyl)amino)-pyridin-3-yl]-acetamide]", "IC50": 86},
      {"molecule": "COCCN(C)c1ccc(CC(=O)Nc2ccn(Cc3ccc(F)cc3)n2)cc1", "note": "[Example 128, N-[1-(4-Fluoro-benzyl)-1H-pyrazol-3-yl]-2-{4-[(2-methoxy-ethyl)-methyl-amino]-phenyl}-acetamide]", "IC50": 9.7},
      {"molecule": "CC1(COc2ccc(CC(=O)Nc3ccn(Cc4ccc(C#N)cn4)n3)cc2)COC1", "note": "[Example 284, N-[1-(5-Cyano-pyridin-2-ylmethyl)-1H-pyrazol-3-yl]-2-[4-(3-methyl-oxetan-3-ylmethoxy)-phenyl]-acetamide]", "IC50": 3070},
      {"molecule": "N#Cc1cc(Cn2ccc(NC(=O)Cc3ccc(OCC(F)(F)F)c(C4CC4)c3)n2)ncc1F", "note": "[Example 409, N-[1-(4-Cyano-5-fluoro-pyridin-2-ylmethyl)-1H-pyrazol-3-yl]-2-[3-cyclopropyl-4-(2,2,2-trifluoro-ethoxy)-phenyl]-acetamide]", "IC50": 43},
      {"molecule": "Cc1cn(C)c2cc(CC(=O)Nc3ccn(Cc4ccc(F)c(F)c4)n3)ccc12", "note": "[Example 259, N-[1-(3,4-Difluoro-benzyl)-1H-pyrazol-3-yl]-2-(1,3-dimethyl-1H-indol-6-yl)-acetamide]", "IC50": 4.1},
      {"molecule": "CCn1ncc2cc(CC(=O)Nc3ccn(Cc4cc(F)c(C#N)c(F)c4)n3)ccc21", "note": "[Example 357, N-[1-(4-Cyano-3,5-difluoro-benzyl)-1H-pyrazol-3-yl]-2-(1-ethyl-1H-indazol-5-yl)-acetamide]", "IC50": 34},
      {"molecule": "CCc1ccc(Cn2ccc(NC(=O)Cc3ccc(N(C)C)nc3)n2)cc1", "note": "[Example 35, 2-(6-Dimethylamino-pyridin-3-yl)-N-[1-(4-ethyl-benzyl)-1H-pyrazol-3-yl]-acetamide]", "IC50": 43},
      {"molecule": "CC(C)c1ccc(CC(=O)Nc2ccn(Cc3ccc(F)cc3)n2)cc1", "note": "[Example 6, N-[1-(4-Fluoro-benzyl)-1H-pyrazol-3-yl]-2-(4-isopropyl-phenyl)-acetamide]", "IC50": 6.6},
      {"molecule": "CC1(c2ccc(CC(=O)Nc3ccn(Cc4ccc(C#N)cc4)n3)cc2)COC1", "note": "[Example 317, N-[1-(4-Cyano-benzyl)-1H-pyrazol-3-yl]-2-[4-(3-methyl-oxetan-3-yl)-phenyl]-acetamide]", "IC50": 56},
      {"molecule": "CC(C)Cc1ccc(CC(=O)Nc2ccn(Cc3ccc(F)c(F)c3)n2)cc1C#N", "note": "[Example 393, 2-(3-Cyano-4-isobutyl-phenyl)-N-[1-(3,4-difluoro-benzyl)-1H-pyrazol-3-yl]-acetamide]", "IC50": 51},
      {"molecule": "N#Cc1ccc(Cn2ccc(NC(=O)Cc3ccc(OC4CCC4)cc3)n2)cc1", "note": "[Example 197, N-[1-(4-Cyano-benzyl)-1H-pyrazol-3-yl]-2-(4-cyclobutoxy-phenyl)-acetamide]", "IC50": 54},
      {"molecule": "N#Cc1ccc(Cn2ccc(NC(=O)Cc3ccc(OC4CC4)cc3)n2)cc1", "note": "[Example 64, N-[1-(4-Cyano-benzyl)-1H-pyrazol-3-yl]-2-(4-cyclopropoxy-phenyl)-acetamide]", "IC50": 80},
      {"molecule": "COc1ccc(Cn2ccc(NC(=O)Cc3ccc(N4CC[C@H](F)C4)nc3)n2)cc1", "note": "[Example 156, 2-[6-((S)-3-Fluoro-pyrrolidin-1-yl)-pyridin-3-yl]-N-[1-(4-methoxy-benzyl)-1H-pyrazol-3-yl]-acetamide]", "IC50": 179},
      {"molecule": "Cc1ccc(Cn2ccc(NC(=O)Cc3ccc(N4CCC(F)(F)C4)nc3)n2)nc1C#N", "note": "[Example 366, N-[1-(6-Cyano-5-methyl-pyridin-2-ylmethyl)-1H-pyrazol-3-yl]-2-[6-(3,3-difluoro-pyrrolidin-1-yl)-pyridin-3-yl]-acetamide]", "IC50": 147},
      {"molecule": "N#Cc1c(F)cc(Cn2ccc(NC(=O)Cc3ccc(N4CCCC4)nc3)n2)cc1F", "note": "[Example 351, N-[1-(4-Cyano-3,5-difluoro-benzyl)-1H-pyrazol-3-yl]-2-(6-pyrrolidin-1-yl-pyridin-3-yl)-acetamide]", "IC50": 65},
      {"molecule": "N#Cc1ccc(Cn2ccc(NC(=O)Cc3ccc(N4CCC(F)(F)C4)nc3)n2)cc1F", "note": "[Example 294, N-[1-(4-Cyano-3-fluoro-benzyl)-1H-pyrazol-3-yl]-2-[6-(3,3-difluoro-pyrrolidin-1-yl)-pyridin-3-yl]-acetamide]", "IC50": 22},
      {"molecule": "Cn1ccc2cc(CC(=O)Nc3ccn(Cc4ccc(C#N)cc4)n3)ccc21", "note": "[Example 296, N-[1-(4-Cyano-benzyl)-1H-pyrazol-3-yl]-2-(1-methyl-1H-indol-5-yl)-acetamide]", "IC50": 17},
      {"molecule": "CN(CC1CC1)c1ccc(CC(=O)Nc2ccn(Cc3ccc(F)cc3)n2)cn1", "note": "[Example 187, 2-[6-(Cyclopropylmethyl-methyl-amino)-pyridin-3-yl]-N-[1-(4-fluoro-benzyl)-1H-pyrazol-3-yl]-acetamide]", "IC50": 15},
      {"molecule": "O=C(Cc1ccc(N2CC(F)C2)cc1)Nc1ccn(Cc2ccc(F)c(F)c2)n1", "note": "[Example 62, N-[1-(3,4-Difluoro-benzyl)-1H-pyrazol-3-yl]-2-[4-(3-fluoro-azetidin-1-yl)-phenyl]-acetamide]", "IC50": 3.8},
      {"molecule": "N#Cc1ccc(Cn2ccc(NC(=O)Cc3ccc(N4CCC4)nc3)n2)nc1", "note": "[Example 102, 2-(6-Azetidin-1-yl-pyridin-3-yl)-N-[1-(5-cyano-pyridin-2-ylmethyl)-1H-pyrazol-3-yl]-acetamide]", "IC50": 7050},
      {"molecule": "CC(C)Oc1nc(Cn2ccc(NC(=O)Cc3ccc(C(C)C)cc3)n2)ccc1C#N", "note": "[Example 118, N-[1-(5-Cyano-6-isopropoxy-pyridin-2-ylmethyl)-1H-pyrazol-3-yl]-2-(4-isopropyl-phenyl)-acetamide]", "IC50": 97},
      {"molecule": "CCc1ccc(Cn2ccc(NC(=O)Cc3ccc(N(C)C)cc3)n2)cc1", "note": "[Example 16, 2-(4-Dimethylamino-phenyl)-N-[1-(4-ethyl-benzyl)-1H-pyrazol-3-yl]-acetamide]", "IC50": 10},
      {"molecule": "Cn1ccc2cc(CC(=O)Nc3ccn(Cc4ccc(C#N)cn4)n3)ccc21", "note": "[Example 301, N-[1-(5-Cyano-pyridin-2-ylmethyl)-1H-pyrazol-3-yl]-2-(1-methyl-1H-indol-5-yl)-acetamide]", "IC50": 71},
      {"molecule": "CN(C)c1ccc(CC(=O)Nc2ccn(Cc3ccc(Cl)c(OC(F)(F)F)c3)n2)cc1", "note": "[Example 34, N-[1-(4-Chloro-3-trifluoromethoxy-benzyl)-1H-pyrazol-3-yl]-2-(4-dimethylamino-phenyl)-acetamide]", "IC50": 91},
      {"molecule": "Cn1ncc2cc(CC(=O)Nc3ccn(Cc4ccc(C#N)cn4)n3)ccc21", "note": "[Example 249, N-[1-(5-Cyano-pyridin-2-ylmethyl)-1H-pyrazol-3-yl]-2-(1-methyl-1H-indazol-5-yl)-acetamide]", "IC50": 295},
      {"molecule": "Cc1ccc(Cn2ccc(NC(=O)Cc3ccc(N(C)C)nc3)n2)cc1", "note": "[Example 13, 2-(6-Dimethylamino-pyridin-3-yl)-N-[1-(4-methyl-benzyl)-1H-pyrazol-3-yl]-acetamide]", "IC50": 133},
      {"molecule": "CC(C)c1ccc(CC(=O)Nc2ccn(Cc3ccc(N4CCC4)cn3)n2)cc1", "note": "[Example 394, N-[1-(5-Azetidin-1-yl-pyridin-2-ylmethyl)-1H-pyrazol-3-yl]-2-(4-isopropyl-phenyl)-acetamide]", "IC50": 126},
      {"molecule": "COCCOc1ccc(Cn2ccc(NC(=O)Cc3ccc(C(C)C)cc3)n2)nc1", "note": "[Example 104, 2-(4-Isopropyl-phenyl)-N-{1-[5-(2-methoxy-ethoxy)-pyridin-2-ylmethyl]-1H-pyrazol-3-yl}-acetamide]", "IC50": 4520},
      {"molecule": "Cn1ccc2cc(CC(=O)Nc3ccn(Cc4ccc(C#N)c(F)c4)n3)ccc21", "note": "[Example 292, N-[1-(4-Cyano-3-fluoro-benzyl)-1H-pyrazol-3-yl]-2-(1-methyl-1H-indol-5-yl)-acetamide]", "IC50": 6.5},
      {"molecule": "CC1(COc2ccc(CC(=O)Nc3ccn(Cc4ccc(F)c(F)c4)n3)cc2)CC(F)(F)C1", "note": "[Example 243, N-[1-(3,4-Difluoro-benzyl)-1H-pyrazol-3-yl]-2-[4-(3,3-difluoro-1-methyl-cyclobutylmethoxy)-phenyl]-acetamide]", "IC50": 37},
      {"molecule": "O=C(Cc1ccc(C2(O)COC2)cc1)Nc1ccn(Cc2ccc(F)c(F)c2)n1", "note": "[Example 226, N-[1-(3,4-Difluoro-benzyl)-1H-pyrazol-3-yl]-2-[4-(3-hydroxy-oxetan-3-yl)-phenyl]-acetamide]", "IC50": 25},
      {"molecule": "CC(C)Oc1ccc(Cn2ccc(NC(=O)Cc3ccc(C(C)C)cc3)n2)nc1", "note": "[Example 105, N-[1-(5-Isopropoxy-pyridin-2-ylmethyl)-1H-pyrazol-3-yl]-2-(4-isopropyl-phenyl)-acetamide]", "IC50": 31},
      {"molecule": "CN(C)c1ccc(CC(=O)Nc2ccn(Cc3ccc(F)c(Cl)c3)n2)cc1", "note": "[Example 31, N-[1-(3-Chloro-4-fluoro-benzyl)-1H-pyrazol-3-yl]-2-(4-dimethylamino-phenyl)-acetamide]", "IC50": 4},
      {"molecule": "Cc1cc(CC(=O)Nc2ccn(Cc3cc(C#N)c(F)cn3)n2)ccc1OCCC(F)(F)F", "note": "[Example 421, N-[1-(4-Cyano-5-fluoro-pyridin-2-ylmethyl)-1H-pyrazol-3-yl]-2-[3-methyl-4-(3,3,3-trifluoro-propoxy)-phenyl]-acetamide]", "IC50": 41},
      {"molecule": "CC(C)c1ccc(Cn2ccc(NC(=O)Cc3ccc(N(C)C)cc3)n2)cc1", "note": "[Example 17, 2-(4-Dimethylamino-phenyl)-N-[1-(4-isopropyl-benzyl)-1H-pyrazol-3-yl]-acetamide]", "IC50": 12},
      {"molecule": "CC(C)c1ccc(CC(=O)Nc2ccn(Cc3ccc(Cl)cc3)n2)cc1", "note": "[Example 1, N-[1-(4-Chloro-benzyl)-1H-pyrazol-3-yl]-2-(4-isopropyl-phenyl)-acetamide]", "IC50": 14}
    ]}
  ]
}
